Reference: patent publication US20110212053A1, “PHOSPHATIDYLINOSITOL 3 KINASE INHIBITORS” (priority 2008, published 2011)
“And” between values parts separate entries of the source, which are not always exact repeats. Equal entries are not always repeated.

Legend:
PI3Kδ = target: T1, PI3Kδ (Homo sapiens, UniProt O00329); assay: KinaseGLO luminescent PI3-kinase assay, PI3Kδ; format: biochemical
T1 construct: purchased Invitrogen or Millipore
Method: (§1) Compound Preparation: KinaseGLO assay: 30× stocks of inhibitors were prepared in DMSO. A 10 mM master stock was prepared and all other stocks were generated by serial dilution of this master stock in DMSO. The final concentration of DMSO in the kinase reaction was 3.3% (v/v).
(§2) PI3-Kinase Assay: The KinaseGLO® Luminescent Kinase Assay (Promega) is a luciferin-luciferase based luminescent assay that utilizes a proprietary thermostable luciferase to quantify the ATP remaining in a solution after a kinase reaction. The luminescent signal generated using KinaseGLO® directly correlates with ATP concentration, and therefore inversely correlates with kinase activity.
(§3) PI3K enzyme sample was thawed and diluted to 100 ng/μL in enzyme dilution buffer (50 mM HEPES, pH7.5, 3.0 mM MgCl2, 1.0 mM EGTA) and stored on ice. PI3Kα enzyme was diluted to a final concentration of 1 ng/μL in reaction buffer (for PI3Kα; 50 mM HEPES, pH7.5, 100 mM NaCl, 2.0 mM DTT, 3.0 mM MgCl2, 1.0 mM EGTA, 10 μM ATP) and gently mixed. 25 μL of this kinase reaction was then aliquoted into test wells in a Microfluor2 white 96-well plate (Thermo Scientific). As a preincubation step, 1 μl of 30× compound dilutions was added to the appropriate test wells to generate a ten point dose-response ranging from 0.0 μM-10 μM inhibitor. […] Luminescent signal was detected using a SpectraMax M5 (Molecular Devices). Maximal luminescence (no PI3K activity/maximal PI3K inhibition) was determined from reaction buffer plus SC-PI substrate only controls. The minimal signal (maximal PI3K activity) was determined by the 0.0 μM compound (DMSO only) control. IC50 values were calculated via non-linear regression using GraphPad Prism data analysis software.
(§4) Compounds were assayed against the Class I PI3Kα, PI3Kβ, PI3Kγ, PI3Kδ, PI3Kα(H1047R) and PI3Kα(E545K) in the KinaseGLO assay as described in Example 2, and against the Class IV PI3K mTOR in the radiometric assay. IC50 values (μM) were determined using 8-10 point half-log dose dilutions and calculated via nonlinear regression analysis using Graphpad Prism data analysis software.

PI3Kα(E545K) = target: T2, PI3Kα(E545K) (Homo sapiens, UniProt P42336, E545K); assay: KinaseGLO luminescent PI3-kinase assay, mutant PI3Kα(E545K); format: biochemical
T2 construct: purchased Invitrogen or Millipore
Method: as §1, §2, §3, §4

[1] = tested on: p-AKT(S473) in U-87 MG cells; assay: In-cell western blot (cytoblot) of AKT phosphorylation, U-87 MG; format: cell-based; details: Homo sapiens, read-out: IC50 against the p-AKT(S473) phosphorylation site
Method: (§5) Compound Preparation: Cell-based assays: 1000× stocks of inhibitors were prepared in DMSO. A 10 mM master stock was prepared and all other stocks were generated by serial dilution of the master stock in DMSO. The final concentration of DMSO in cell-based assays was 0.1% (v/v).
(§6) In-cell western blot (cytoblot) mechanistic assay; Measurement of AKT phosphorylation: The in-cell western blot assay is a quantitative 96-well immunocytochemistry assay using fixed cells. Phosphorylated AKT is detected and quantified via either enhanced chemiluminescence (ECL) or near infra-red (LI-COR) methods. Log-phase cells (10,000 A549, RKO or 30,000 U-87 MG) were plated in collagen coated, 96 well plates (Nunc) in 200 μL of growth medium (10% FBS/DMEM) and allowed to attach overnight at 37° C. in 5% CO2 incubator. Black 96 well plates were used for ECL assays. White, clear bottomed 96 well plates were used for LI-COR assays. The following day the growth medium was removed. For experiments using U-87 MG cells and RKO cells, the growth medium was replaced with 200 μL of fresh growth medium containing inhibitors dissolved in DMSO. PI3K inhibitors were dosed using half-log dilutions to generate an eight-point dose-response curve from 0.0 μM-10 μM for EC50 determinations, and the final concentration of DMSO in the test wells was 0.1% (v/v). The inhibitor treated cells were then incubated for 1 hour at 37° C. […]
(§7) After the inhibitor incubation phase (with or without IGF-1 stimulation), the medium was aspirated, the cells washed once with Tris-Buffered Saline (TBS) and then fixed in the wells by addition of 200 μL of cold 3.7% (v/v) formaldehyde diluted in TBS to test wells and incubated for 15 minutes at 4° C. […] The wells were then was washed four times with ice-cold TBS-T. Phospho-AKT luminescent signal was detected after a 1 minute incubation of test wells with 100 μL of ECL reagent using a SpectraMax M5 luminometer. (ii) Near-infrared fluorescence detection (LI-COR): After removal of the methanol, wells were blocked with 200 μL of LI-COR blocking buffer for 1 hour at room temperature. […]

[2] = tested on: p-AKT(S473) in IGF-1-stimulated A549 cells; assay: In-cell western blot (cytoblot) of AKT phosphorylation, IGF-1-stimulated A549; format: cell-based; details: Homo sapiens, read-out: IC50 against the p-AKT(S473) phosphorylation site
Method: as §5, §6, §7

T2 sequence (P42336 whole entry E545K): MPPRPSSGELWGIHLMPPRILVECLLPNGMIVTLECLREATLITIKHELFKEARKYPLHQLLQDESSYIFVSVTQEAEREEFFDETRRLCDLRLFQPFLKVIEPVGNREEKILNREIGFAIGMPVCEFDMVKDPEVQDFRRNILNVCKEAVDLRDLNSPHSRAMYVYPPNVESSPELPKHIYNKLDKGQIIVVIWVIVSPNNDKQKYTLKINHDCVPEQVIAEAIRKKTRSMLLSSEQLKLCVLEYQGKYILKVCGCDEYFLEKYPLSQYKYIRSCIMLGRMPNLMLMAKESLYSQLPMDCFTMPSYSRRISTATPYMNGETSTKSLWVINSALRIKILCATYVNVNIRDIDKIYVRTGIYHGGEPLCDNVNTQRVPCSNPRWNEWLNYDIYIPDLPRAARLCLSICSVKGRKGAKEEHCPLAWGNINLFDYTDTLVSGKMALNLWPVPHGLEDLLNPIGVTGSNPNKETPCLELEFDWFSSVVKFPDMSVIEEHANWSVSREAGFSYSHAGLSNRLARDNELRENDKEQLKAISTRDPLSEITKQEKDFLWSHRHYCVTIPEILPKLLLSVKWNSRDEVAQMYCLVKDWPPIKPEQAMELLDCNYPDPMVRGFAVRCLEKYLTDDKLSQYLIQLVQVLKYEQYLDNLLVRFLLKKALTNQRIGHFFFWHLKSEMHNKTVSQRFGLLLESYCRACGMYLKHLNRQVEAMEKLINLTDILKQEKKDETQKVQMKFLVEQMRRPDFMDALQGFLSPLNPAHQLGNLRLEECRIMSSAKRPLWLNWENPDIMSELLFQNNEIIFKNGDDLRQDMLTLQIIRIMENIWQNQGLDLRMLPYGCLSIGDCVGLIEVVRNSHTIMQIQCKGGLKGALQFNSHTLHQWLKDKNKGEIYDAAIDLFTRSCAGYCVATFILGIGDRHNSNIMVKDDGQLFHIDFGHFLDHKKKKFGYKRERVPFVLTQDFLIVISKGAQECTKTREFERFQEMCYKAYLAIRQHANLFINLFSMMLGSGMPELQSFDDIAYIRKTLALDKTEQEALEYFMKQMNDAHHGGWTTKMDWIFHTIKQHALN
T2 sequence (P27986 whole entry partner): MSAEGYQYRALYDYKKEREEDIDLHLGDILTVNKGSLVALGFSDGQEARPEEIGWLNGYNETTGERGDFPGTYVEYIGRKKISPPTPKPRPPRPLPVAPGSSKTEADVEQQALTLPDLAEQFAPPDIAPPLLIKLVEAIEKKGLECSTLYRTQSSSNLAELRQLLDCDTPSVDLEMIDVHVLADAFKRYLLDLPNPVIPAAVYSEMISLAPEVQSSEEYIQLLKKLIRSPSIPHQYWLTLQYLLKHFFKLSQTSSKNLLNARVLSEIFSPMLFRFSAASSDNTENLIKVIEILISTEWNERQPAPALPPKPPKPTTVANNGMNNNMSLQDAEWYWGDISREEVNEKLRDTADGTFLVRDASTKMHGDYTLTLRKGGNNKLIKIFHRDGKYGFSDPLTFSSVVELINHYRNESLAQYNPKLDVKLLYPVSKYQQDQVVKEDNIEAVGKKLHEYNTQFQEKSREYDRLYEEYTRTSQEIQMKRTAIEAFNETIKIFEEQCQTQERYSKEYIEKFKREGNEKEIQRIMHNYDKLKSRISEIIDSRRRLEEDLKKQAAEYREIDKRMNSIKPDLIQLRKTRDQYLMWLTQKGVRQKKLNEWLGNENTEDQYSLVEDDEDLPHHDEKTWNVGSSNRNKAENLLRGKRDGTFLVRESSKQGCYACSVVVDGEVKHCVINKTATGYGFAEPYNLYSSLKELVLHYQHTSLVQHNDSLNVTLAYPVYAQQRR
T1 sequence (O00329 whole entry): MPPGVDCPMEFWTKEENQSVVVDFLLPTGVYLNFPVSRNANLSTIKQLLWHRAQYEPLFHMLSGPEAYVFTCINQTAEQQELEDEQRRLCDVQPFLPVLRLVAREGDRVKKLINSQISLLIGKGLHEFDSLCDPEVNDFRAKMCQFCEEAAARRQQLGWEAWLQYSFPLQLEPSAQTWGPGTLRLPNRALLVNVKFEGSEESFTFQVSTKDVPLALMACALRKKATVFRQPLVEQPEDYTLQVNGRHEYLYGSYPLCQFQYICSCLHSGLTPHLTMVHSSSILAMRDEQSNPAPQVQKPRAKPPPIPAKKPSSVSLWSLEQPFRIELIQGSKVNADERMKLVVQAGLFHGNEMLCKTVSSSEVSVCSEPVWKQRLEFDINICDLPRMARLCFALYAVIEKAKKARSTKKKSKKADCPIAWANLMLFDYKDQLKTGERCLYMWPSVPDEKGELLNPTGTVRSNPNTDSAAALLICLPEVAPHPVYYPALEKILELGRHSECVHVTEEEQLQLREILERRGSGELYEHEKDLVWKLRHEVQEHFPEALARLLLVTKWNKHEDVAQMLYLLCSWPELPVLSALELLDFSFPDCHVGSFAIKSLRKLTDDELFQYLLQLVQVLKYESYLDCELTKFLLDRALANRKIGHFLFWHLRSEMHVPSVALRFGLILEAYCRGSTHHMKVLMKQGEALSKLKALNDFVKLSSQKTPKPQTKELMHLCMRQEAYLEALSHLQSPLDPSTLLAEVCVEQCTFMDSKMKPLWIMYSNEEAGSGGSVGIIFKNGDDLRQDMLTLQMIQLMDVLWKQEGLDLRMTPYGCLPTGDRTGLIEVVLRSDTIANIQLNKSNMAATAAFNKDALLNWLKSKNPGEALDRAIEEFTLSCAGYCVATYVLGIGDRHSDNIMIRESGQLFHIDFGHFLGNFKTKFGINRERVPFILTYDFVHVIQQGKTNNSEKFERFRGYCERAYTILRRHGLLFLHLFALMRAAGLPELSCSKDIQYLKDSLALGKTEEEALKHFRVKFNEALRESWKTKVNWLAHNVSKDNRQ
T1 sequence (P27986 whole entry partner): as the sequence (P27986 whole entry partner) above

How did the IC50 (PI3Kδ) turn out when `CC(C)(C#N)c1ccc(-c2n[nH]c3cnc4ccc(-c5cnc6ccccc6c5)cc4c23)cc1` [Compound 1078, 2-methyl-2-(4-(8-(quinolin-3-yl)-3H-pyrazolo[3,4-c]quinolin-1-yl)phenyl)propanenitrile] was run?
The IC50 was < 15 nM and 10 to 35 nM.

And the IC50 (PI3Kα(E545K))?
Its IC50 is 15 to 55 nM.

What about the IC50 [1] of the same compound?
The IC50 was 88 nM.

And the IC50 [2]?
The IC50 was 43 nM.

How did the IC50 (PI3Kδ) turn out when `CC(C)(C#N)c1ccc(-c2n[nH]c3cnc4ccc(-c5cccnc5)cc4c23)cc1` [Compound 1107, 2-methyl-2-(4-(8-(pyridin-3-yl)-3H-pyrazolo[3,4-c]quinolin-1-yl)phenyl)propanenitrile] was run?
The IC50 was 10 to 35 nM.

And the IC50 (PI3Kα(E545K))?
The IC50 was under 10 nM.

What about the IC50 [1] of the same compound?
Its IC50 is 54 nM.

What about the IC50 [2] of the same compound?
The IC50 was 189 nM.

`CC(C)(C#N)c1ccc(-c2n[nH]c3cnc4ccc(-c5ccc6ncccc6c5)cc4c23)cc1` [Compound 1110, 2-methyl-2-(4-(8-(quinolin-6-yl)-3H-pyrazolo[3,4-c]quinolin-1-yl)phenyl)propanenitrile] was tested. Which IC50 (PI3Kδ) did it give?
The IC50 was 10 to 35 nM.

And the IC50 (PI3Kα(E545K))?
Its IC50 is 15 to 55 nM.

What about the IC50 [1] of the same compound?
Its IC50 is 81 nM.

What about the IC50 [2] of the same compound?
Its IC50 is 210 nM.
